Experimental data: ChEMBL document CHEMBL3885881, “DrugMatrix”

Species: Rattus norvegicus
Assay: DrugMatrix - Regimen: Daily Repeat
Type: toxicity, organism-based, Sprague-Dawley
Design: regimen Daily Repeat, gender Male, age 6-8 weeks
Conditions: in vivo, po, route oral GAVAGE, vehicle 100 % WATER; for ABSOLUTE BASOPHIL / ABSOLUTE EOSINOPHIL / ABSOLUTE LYMPHOCYTE / ABSOLUTE MONOCYTE / ABSOLUTE SEGMENTED NEUTROPHIL / BASOPHIL / EOSINOPHIL / ERYTHROCYTE COUNT / HEMATOCRIT / HEMOGLOBIN / LEUKOCYTE COUNT / LYMPHOCYTE / MEAN CORPUSCULAR HEMOGLOBIN / MEAN CORPUSCULAR HEMOGLOBIN CONCENTRATION / MEAN CORPUSCULAR VOLUME / MONOCYTE / NEUTROPHIL / NUCLEATED RED BLOOD CELLS / PLATELET COUNT: tissue Blood
[1] = 0 mg/kg, 120 h, tissue Plasma, dose level Control, time 5 day
[2] = 60 mg/kg, 72 h, dose level Low, time 3 day
[3] = 60 mg/kg, 72 h, tissue Plasma, dose level Low, time 3 day
[4] = 60 mg/kg, 120 h, dose level Low, time 5 day
[5] = 60 mg/kg, 120 h, tissue Plasma, dose level Low, time 5 day

Structure (SMILES): ClC(Cl)Cl [CHLOROFORM]
- TOTAL BILIRUBIN [1]: 0.17 mg/dL
- TOTAL PROTEIN [1]: 5.98 G/DL
- URIC ACID [1]: 0.93 mg/dL
- ABSOLUTE BASOPHIL [2]: 0 CELLS/uL
- ABSOLUTE EOSINOPHIL [2]: 102.33 CELLS/uL
- ABSOLUTE LYMPHOCYTE [2]: 13682.67 CELLS/uL
- ABSOLUTE MONOCYTE [2]: 170.33 CELLS/uL
- ABSOLUTE SEGMENTED NEUTROPHIL [2]: 1778 CELLS/uL
- BASOPHIL [2]: 0%
- EOSINOPHIL [2]: 0.67%
- ERYTHROCYTE COUNT [2]: 5.57 x10E6/uL
- HEMATOCRIT [2]: 35.2%
- HEMOGLOBIN [2]: 13.87 G/DL
- LEUKOCYTE COUNT [2]: 15.73 x10E3/uL
- LYMPHOCYTE [2]: 86.67%
- MEAN CORPUSCULAR HEMOGLOBIN [2]: 24.87 pg
- MEAN CORPUSCULAR HEMOGLOBIN CONCENTRATION [2]: 39.37 G/DL
- MEAN CORPUSCULAR VOLUME [2]: 63.2 fL
- MONOCYTE [2]: 1%
- NEUTROPHIL [2]: 11.67%
- NUCLEATED RED BLOOD CELLS [2]: 0 /100WBC
- PLATELET COUNT [2]: 1237 x10E3/uL
- ALANINE AMINOTRANSFERASE [3]: 53 u/L
- ALBUMIN [3]: 3.97 G/DL
- ALKALINE PHOSPHATASE [3]: 363.67 u/L
- ASPARTATE AMINOTRANSFERASE [3]: 98.67 u/L
- BLOOD UREA NITROGEN [3]: 15.33 mg/dL
- CARBON DIOXIDE [3]: 23.33 mmol/L
- CHLORIDE [3]: 103.33 MEQ/L
- CHOLESTEROL [3]: 70.67 mg/dL
- CREATINE PHOSPHOKINASE [3]: 579.33 u/L
- CREATININE [3]: 0.13 mg/dL
- GLUCOSE [3]: 155.67 mg/dL
- LACTATE DEHYDROGENASE [3]: 507.67 u/L
- LIPASE [3]: 9 u/L
- PHOSPHORUS [3]: 12.8 mg/dL
- POTASSIUM [3]: 5.78 MEQ/L
- SODIUM [3]: 143.9 MEQ/L
- TOTAL BILIRUBIN [3]: 0.2 mg/dL
- TOTAL PROTEIN [3]: 5.67 G/DL
- URIC ACID [3]: 1.83 mg/dL
- ABSOLUTE BASOPHIL [4]: 0 CELLS/uL
- ABSOLUTE EOSINOPHIL [4]: 47.67 CELLS/uL
- ABSOLUTE LYMPHOCYTE [4]: 10405 CELLS/uL
- ABSOLUTE MONOCYTE [4]: 114.67 CELLS/uL
- ABSOLUTE SEGMENTED NEUTROPHIL [4]: 899.33 CELLS/uL
- BASOPHIL [4]: 0%
- EOSINOPHIL [4]: 0.33%
- ERYTHROCYTE COUNT [4]: 6.07 x10E6/uL
- HEMATOCRIT [4]: 37.63%
- HEMOGLOBIN [4]: 14.23 G/DL
- LEUKOCYTE COUNT [4]: 11.47 x10E3/uL
- LYMPHOCYTE [4]: 90%
- MEAN CORPUSCULAR HEMOGLOBIN [4]: 23.5 pg
- MEAN CORPUSCULAR HEMOGLOBIN CONCENTRATION [4]: 37.87 G/DL
- MEAN CORPUSCULAR VOLUME [4]: 62.07 fL
- MONOCYTE [4]: 1%
- NEUTROPHIL [4]: 8.67%
- NUCLEATED RED BLOOD CELLS [4]: 0 /100WBC
- PLATELET COUNT [4]: 1244.67 x10E3/uL
- ALANINE AMINOTRANSFERASE [5]: 54.33 u/L
- ALBUMIN [5]: 4.27 G/DL
- ALKALINE PHOSPHATASE [5]: 299.67 u/L
- ASPARTATE AMINOTRANSFERASE [5]: 84.33 u/L
- BLOOD UREA NITROGEN [5]: 16 mg/dL
- CARBON DIOXIDE [5]: 30.67 mmol/L
- CHLORIDE [5]: 102 MEQ/L
- CHOLESTEROL [5]: 59.67 mg/dL
- CREATINE PHOSPHOKINASE [5]: 401 u/L
- CREATININE [5]: 0.22 mg/dL
- GLUCOSE [5]: 139.33 mg/dL
- LACTATE DEHYDROGENASE [5]: 140 u/L
- LIPASE [5]: 10 u/L
- PHOSPHORUS [5]: 10.83 mg/dL
